What is called GI50 is the concentration at which growth is held to half of that of the control. A low value points to greater sensitivity of the cells.

This note sets out measurements from patent US20230312577A1, “DUAL KINASE-BROMODOMAIN INHIBITORS” (MONASH UNIVERSITY, priority 2020, published 2023).

For the test, the system named is OPM2 cells. Kind of test: Cell proliferation assay (ViaLight, cellular ATP). Type of test: cell-based. The conditions noted are these: Homo sapiens, OPM-2, 120 h, 5 days, 5 μM to 1 nM. As to the method:
OPM2 cells (1×10^3) were plated in a 96 well plate. Test compounds were added to cells at final concentrations ranging from 5 μM to 1 nM. They were incubated for 5 days before they were analysed using ViaLight luminescence-based proliferation assays which detect cellular ATP, as per the manufacturer's instructions. All samples were prepared in technical triplicates. Data analysis was performed in GraphPad Prism version 7.00 for Mac OS X, (GraphPad Software, San Diego California USA) in order to calculate the GI50.

With `CC(=O)N1c2ccc(-c3ccc(NC(=O)CNC(=O)c4sc5c(N6CCOCC6)nc(-c6cnc(N)nc6)nc5c4C)cc3)cc2CC[C@@H]1C` [Cpd 047, (S)-N-(2-((4-(1-acetyl-2-methyl-1,2,3,4-tetrahydroquinolin-6-yl)phenyl)amino)-2-oxoethyl)-2-(2-aminopyrimidin-5-yl)-7-methyl-4-morpholinothieno[3,2-d]pyrimidine-6-carboxamide], the GI50 is > 500 nM.

Take `CC(=O)N1c2ccc(-c3ccc(NC(=O)CNC(=O)c4nc5c(N6CCOCC6)nc(-c6cnc(N)nc6)cn5c4C)cc3)cc2CC[C@@H]1C` [Cpd 048, (S)-N-(2-((4-(1-acetyl-2-methyl-1,2,3,4-tetrahydroquinolin-6-yl)phenyl)amino)-2-oxoethyl)-6-(2-aminopyrimidin-5-yl)-3-methyl-8-morpholinoimidazo[1,2-a]pyrazine-2-carboxamide]: the GI50 is ≤ 100 nM.

In turn, `CC(=O)N1c2ccc(-c3cccc(NC(=O)CNC(=O)c4sc5c(N6CCOCC6)nc(-c6cnc(N)nc6)nc5c4C)c3)cc2CC[C@@H]1C` [Cpd 049, (S)-N-(2-((3-(1-acetyl-2-methyl-1,2,3,4-tetrahydroquinolin-6-yl)phenyl)amino)-2-oxoethyl)-2-(2-aminopyrimidin-5-yl)-7-methyl-4-morpholinothieno[3,2-d]pyrimidine-6-carboxamide] gave a GI50 of 100 to 500 nM.

Consider `CC(=O)N1c2ccc(-c3cccc(CCNC(=O)c4nc5c(N6CCOCC6)nc(-c6cnc(N)nc6)cn5c4C)c3)cc2CC[C@@H]1C` [Cpd 050, (S)-N-(3-(1-acetyl-2-methyl-1,2,3,4-tetrahydroquinolin-6-yl)phenethyl)-6-(2-aminopyrimidin-5-yl)-3-methyl-8-morpholinoimidazo[1,2-a]pyrazine-2-carboxamide], for which the GI50 is 100 to 500 nM.

Turning to `CC(=O)N1c2ccc(-c3cccc(CCNC(=O)c4sc5c(N6CCOCC6)nc(-c6cnc(N)nc6)nc5c4C)c3)cc2CC[C@@H]1C` [Cpd 051, (S)-N-(3-(1-acetyl-2-methyl-1,2,3,4-tetrahydroquinolin-6-yl)phenethyl)-2-(2-aminopyrimidin-5-yl)-7-methyl-4-morpholinothieno[3,2-d]pyrimidine-6-carboxamide], the GI50 is 100 to 500 nM.

`CC(=O)N1c2ccc(-c3cnn(C4CCN(Cc5sc6c(N7CCOCC7)nc(-c7cnc(N)nc7)nc6c5C)CC4)c3)cc2CC[C@@H]1C` [Cpd 052, (S)-1-(6-(1-(1-((2-(2-aminopyrimidin-5-yl)-7-methyl-4-morpholinothieno[3,2-d]pyrimidin-6-yl)methyl)piperidin-4-yl)-1H-pyrazol-4-yl)-2-methyl-3,4-dihydroquinolin-1(2H)-yl)ethan-1-one]: the GI50 is > 500 nM.

With `CC(=O)N1c2ccc(-c3cnn(C4CCN(C(=O)c5sc6c(N7CCOCC7)nc(-c7cnc(N)nc7)nc6c5C)CC4)c3)cc2CC[C@@H]1C` [Cpd 053, (S)-1-(6-(1-(1-(2-(2-aminopyrimidin-5-yl)-7-methyl-4-morpholinothieno[3,2-d]pyrimidine-6-carbonyl)piperidin-4-yl)-1H-pyrazol-4-yl)-2-methyl-3,4-dihydroquinolin-1(2H)-yl)ethan-1-one], the GI50 was ≤ 100 nM.

Regarding `CC(=O)N1c2ccc(-c3ccc(CNCc4sc5c(N6CCOCC6)nc(-c6cnc(N)nc6)nc5c4C)cc3)cc2CC[C@@H]1C` [Cpd 055, (S)-1-(6-(4-((((2-(2-aminopyrimidin-5-yl)-7-methyl-4-morpholinothieno[3,2-d]pyrimidin-6-yl)methyl)amino)methyl)phenyl)-2-methyl-3,4-dihydroquinolin-1(2H)-yl)ethan-1-one], the GI50 was > 500 nM.

In turn, `CC(=O)N(Cc1ccc(-c2ccc3c(c2)CC[C@H](C)N3C(C)=O)cc1)Cc1sc2c(N3CCOCC3)nc(-c3cnc(N)nc3)nc2c1C` [Cpd 056, (S)-N-(4-(1-Acetyl-2-methyl-1,2,3,4-tetrahydroquinolin-6-yl)benzyl)-N-((2-(2-aminopy-rimidin-5-yl)-7-methyl-4-morpholinothieno[3,2-d]pyrimidin-6-yl)methyl)acetamide] registered a GI50 of 100 to 500 nM.

Regarding `CC(=O)N1c2ccc(-c3ccc(CNC(=O)c4cn5cc(-c6cnc(N)cc6C(F)(F)F)nc(N6CCOCC6)c5n4)cc3)cc2CC[C@@H]1C` [Cpd 057, (S)-N-(4-(1-Acetyl-2-methyl-1,2,3,4-tetrahydroquinolin-6-yl)benzyl)-6-(6-amino-4-(tri-fluoromethyl)pyridin-3-yl)-8-morpholinoimidazo[1,2-a]pyrazine-2-carboxamide], the GI50 was > 500 nM.

For `COc1ccc(-c2cn3cc(C(=O)NCc4ccc(-c5ccc6c(c5)CC[C@H](C)N6C(C)=O)cc4)nc3c(N3CCOCC3)n2)cn1` [Cpd 058, (S)-N-(4-(1-Acetyl-2-methyl-1,2,3,4-tetrahydroquinolin-6-yl)benzyl)-6-(6-methoxypyridin-3-yl)-8-morpholinoimidazo[1,2-a]pyrazine-2-carboxamide], the GI50 fell in the range of 100 to 500 nM.

In the case of `CC(=O)N1c2ccc(-c3ccc(CNC(=O)c4cn5cc(-c6cccc7[nH]ncc67)nc(N6CCOCC6)c5n4)cc3)cc2CC[C@@H]1C` [Cpd 059, (S)-N-(4-(1-Acetyl-2-methyl-1,2,3,4-tetrahydroquinolin-6-yl)benzyl)-6-(1H-indazol-4-yl)-8-morpholinoimidazo[1,2-a]pyrazine-2-carboxamide], the GI50 was ≤ 100 nM.

On to `CC(=O)N1c2ccc(-c3ccc(CNC(=O)c4cn5cc(-n6c(C(F)F)nc7ccccc76)nc(N6CCOCC6)c5n4)cc3)cc2CC[C@@H]1C` [Cpd 060, (S)-N-(4-(1-Acetyl-2-methyl-1,2,3,4-tetrahydroquinolin-6-yl)benzyl)-6-(2-(difluoromethyl)-1H-benzo[d]imidazol-1-yl)-8-morpholinoimidazo[1,2-a]pyrazine-2-carboxamide], for which the GI50 is ≤ 100 nM.

The molecule `CC(=O)N1c2ccc(-c3ccc(C(C)(C)NC(=O)c4cn5cc(-c6cnc(N)nc6)nc(N6CCOCC6)c5n4)cc3)cc2CC[C@@H]1C` [Cpd 061, (S)-N-(2-(4-(1-Acetyl-2-methyl-1,2,3,4-tetrahydroquinolin-6-yl)phenyl)propan-2-yl)-6-(2-aminopyrimidin-5-yl)-8-morpholinoimidazo[1,2-a]pyrazine-2-carboxamide] registered a 50% growth inhibitory concentration (GI50) of 100 to 500 nM.

Turning to `CC(=O)N1c2ccc(-c3ccc([C@H](C)NC(=O)c4cn5cc(-c6cnc(N)nc6)nc(N6CCOCC6)c5n4)cc3)cc2CC[C@@H]1C` [Cpd 062, N-((S)-1-(4-((S)-1-Acetyl-2-methyl-1,2,3,4-tetrahydroquinolin-6-yl)phenyl)ethyl)-6-(2-aminopyrimidin-5-yl)-8-morpholinoimidazo[1,2-a]pyrazine-2-carboxamide], the GI50 was ≤ 100 nM.

In the case of `CC(=O)N1c2ccc(-c3ccc([C@@H](C)NC(=O)c4cn5cc(-c6cnc(N)nc6)nc(N6CCOCC6)c5n4)cc3)cc2CC[C@@H]1C` [Cpd 063, N-((R)-1-(4-((S)-1-Acetyl-2-methyl-1,2,3,4-tetrahydroquinolin-6-yl)phenyl)ethyl)-6-(2-aminopyrimidin-5-yl)-8-morpholinoimidazo[1,2-a]pyrazine-2-carboxamide], the GI50 was ≤ 100 nM.

Take `CC(=O)N1c2ccc(-c3ccc(CNC(=O)c4cn5cc(-c6cnc(N)nc6)nc(N6CCCCC6)c5n4)cc3)cc2CC[C@@H]1C` [Cpd 064, (S)-N-(4-(1-Acetyl-2-methyl-1,2,3,4-tetrahydroquinolin-6-yl)benzyl)-6-(2-aminopyrimidin-5-yl)-8-(piperidin-1-yl)imidazo[1,2-a]pyrazine-2-carboxamide]: the GI50 is 100 to 500 nM.
